{"source": "patent US8883781B2", "about": "“Thienopyrimidines useful as modulators of ion channels” (Vertex Pharmaceuticals Incorporated, priority 2006, dated 2014)", "key": {"NaV1.8 [1]": {"target": "T1, NaV1.8 (Homo sapiens, UniProt Q9Y5Y9)", "experiment": "Activity against NaV 1.8 channel (Table 4)", "type": "cell-based", "protocol": "Compounds of the invention are useful as antagonists of voltage-gated sodium ion channels. Antagonist properties of test compounds were assessed as follows. Cells expressing the NaV of interest were placed into microtiter plates. After an incubation period, the cells were stained with fluorescent dyes sensitive to the transmembrane potential. The test compounds were added to the microtiter plate. The cells were stimulated with either a chemical or electrical means to evoke a NaV dependent membrane potential change from unblocked channels, which was detected and measured with trans-membrane potential-sensitive dyes. Antagonists were detected as a decreased membrane potential response to the stimulus. The optical membrane potential assay utilized voltage-sensitive FRET sensors described by Gonzalez and Tsien (See, Gonzalez, J. E. and R. Y. Tsien (1995) “Voltage sensing by fluorescence resonance energy transfer in single cells” Biophys J 69(4):1272-80, and Gonzalez, J. E. and R. Y. Tsien (1997) “Improved indicators of cell membrane potential that use fluorescence resonance energy transfer” Chem Biol 4(4): 269-77) in combination with instrumentation for measuring fluorescence change such as the Voltage/Ion Probe Reader (VIPR®) (See, Gonzalez, J. E., K. Oades, et al. (1999) “Cell-based assays and instrumentation for screening ion-channel targets” Drug Discov Today 4(9): 431-439).\n24 hours before the assay on VIPR, CHO cells endogenously expressing a NaV 1.2 type voltage-gated NaV are seeded in 96-well poly-lysine coated plates at 60,000 cells per well. Other subtypes are performed in an analogous mode in a cell line expressing the NaV of interest.\nThe following is an example of how NaV1.3 inhibition activity is measured using the optical membrane potential method#2. Other subtypes are performed in an analogous mode in a cell line expressing the NaV of interest.\nHEK293 cells stably expressing NaV1.3 are plated into 96-well microtiter plates. After an appropriate incubation period, the cells are stained with the voltage sensitive dyes CC2-DMPE/DiSBAC2(3) as follows.\nPatch clamp electrophysiology was used to assess the efficacy and selectivity of sodium channel blockers in dorsal root ganglion neurons. Rat neurons were isolated from the dorsal root ganglions and maintained in culture for 2 to 10 days in the presence of NGF (50 ng/ml) (culture media consisted of NeurobasalA supplemented with B27, glutamine and antibiotics). Small diameter neurons (nociceptors, 8-12 μm in diameter) have been visually identified and probed with fine tip glass electrodes connected to an amplifier (Axon Instruments). The “voltage clamp” mode has been used to assess the compound's IC50 holding the cells at −60 mV. In addition, the “current clamp” mode has been employed to test the efficacy of the compounds in blocking action potential generation in response to current injections. The results of these experiments have contributed to the definition of the efficacy profile of the compounds.\nTTX-resistant sodium currents were recorded from DRG somata using the whole-cell variation of the patch clamp technique. Recordings were made at room temperature (˜22° C.) with thick walled borosilicate glass electrodes (WPI; resistance 3-4 MΩ) using an Axopatch 200B amplifier (Axon Instruments). After establishing the whole-cell configuration, approximately 15 minutes were allowed for the pipette solution to equilibrate within the cell before beginning recording. Currents were lowpass filtered between 2-5 kHz and digitally sampled at 10 kHz. Series resistance was compensated 60-70% and was monitored continuously throughout the experiment. The liquid junction potential (−7 mV) between the intracellular pipette solution and the external recording solution was not accounted for in the data analysis. Test solutions were applied to the cells with a gravity driven fast perfusion system (SF-77; Warner Instruments). […]"}, "[2]": {"conditions": "human, in vivo; cited from earlier work"}, "NaV1.6": {"target": "NaV1.6 (Homo sapiens, UniProt Q9UQD0)", "conditions": "read-out: TTX IC50; cited from earlier work"}, "NaV1.9": {"target": "NaV1.9 (Homo sapiens, UniProt Q9UI33)", "conditions": "read-out: TTX IC50; cited from earlier work"}, "NaV1.3": {"target": "NaV1.3 (Homo sapiens, UniProt Q9NY46)", "sequence (Q9NY46 whole entry, looked up)": "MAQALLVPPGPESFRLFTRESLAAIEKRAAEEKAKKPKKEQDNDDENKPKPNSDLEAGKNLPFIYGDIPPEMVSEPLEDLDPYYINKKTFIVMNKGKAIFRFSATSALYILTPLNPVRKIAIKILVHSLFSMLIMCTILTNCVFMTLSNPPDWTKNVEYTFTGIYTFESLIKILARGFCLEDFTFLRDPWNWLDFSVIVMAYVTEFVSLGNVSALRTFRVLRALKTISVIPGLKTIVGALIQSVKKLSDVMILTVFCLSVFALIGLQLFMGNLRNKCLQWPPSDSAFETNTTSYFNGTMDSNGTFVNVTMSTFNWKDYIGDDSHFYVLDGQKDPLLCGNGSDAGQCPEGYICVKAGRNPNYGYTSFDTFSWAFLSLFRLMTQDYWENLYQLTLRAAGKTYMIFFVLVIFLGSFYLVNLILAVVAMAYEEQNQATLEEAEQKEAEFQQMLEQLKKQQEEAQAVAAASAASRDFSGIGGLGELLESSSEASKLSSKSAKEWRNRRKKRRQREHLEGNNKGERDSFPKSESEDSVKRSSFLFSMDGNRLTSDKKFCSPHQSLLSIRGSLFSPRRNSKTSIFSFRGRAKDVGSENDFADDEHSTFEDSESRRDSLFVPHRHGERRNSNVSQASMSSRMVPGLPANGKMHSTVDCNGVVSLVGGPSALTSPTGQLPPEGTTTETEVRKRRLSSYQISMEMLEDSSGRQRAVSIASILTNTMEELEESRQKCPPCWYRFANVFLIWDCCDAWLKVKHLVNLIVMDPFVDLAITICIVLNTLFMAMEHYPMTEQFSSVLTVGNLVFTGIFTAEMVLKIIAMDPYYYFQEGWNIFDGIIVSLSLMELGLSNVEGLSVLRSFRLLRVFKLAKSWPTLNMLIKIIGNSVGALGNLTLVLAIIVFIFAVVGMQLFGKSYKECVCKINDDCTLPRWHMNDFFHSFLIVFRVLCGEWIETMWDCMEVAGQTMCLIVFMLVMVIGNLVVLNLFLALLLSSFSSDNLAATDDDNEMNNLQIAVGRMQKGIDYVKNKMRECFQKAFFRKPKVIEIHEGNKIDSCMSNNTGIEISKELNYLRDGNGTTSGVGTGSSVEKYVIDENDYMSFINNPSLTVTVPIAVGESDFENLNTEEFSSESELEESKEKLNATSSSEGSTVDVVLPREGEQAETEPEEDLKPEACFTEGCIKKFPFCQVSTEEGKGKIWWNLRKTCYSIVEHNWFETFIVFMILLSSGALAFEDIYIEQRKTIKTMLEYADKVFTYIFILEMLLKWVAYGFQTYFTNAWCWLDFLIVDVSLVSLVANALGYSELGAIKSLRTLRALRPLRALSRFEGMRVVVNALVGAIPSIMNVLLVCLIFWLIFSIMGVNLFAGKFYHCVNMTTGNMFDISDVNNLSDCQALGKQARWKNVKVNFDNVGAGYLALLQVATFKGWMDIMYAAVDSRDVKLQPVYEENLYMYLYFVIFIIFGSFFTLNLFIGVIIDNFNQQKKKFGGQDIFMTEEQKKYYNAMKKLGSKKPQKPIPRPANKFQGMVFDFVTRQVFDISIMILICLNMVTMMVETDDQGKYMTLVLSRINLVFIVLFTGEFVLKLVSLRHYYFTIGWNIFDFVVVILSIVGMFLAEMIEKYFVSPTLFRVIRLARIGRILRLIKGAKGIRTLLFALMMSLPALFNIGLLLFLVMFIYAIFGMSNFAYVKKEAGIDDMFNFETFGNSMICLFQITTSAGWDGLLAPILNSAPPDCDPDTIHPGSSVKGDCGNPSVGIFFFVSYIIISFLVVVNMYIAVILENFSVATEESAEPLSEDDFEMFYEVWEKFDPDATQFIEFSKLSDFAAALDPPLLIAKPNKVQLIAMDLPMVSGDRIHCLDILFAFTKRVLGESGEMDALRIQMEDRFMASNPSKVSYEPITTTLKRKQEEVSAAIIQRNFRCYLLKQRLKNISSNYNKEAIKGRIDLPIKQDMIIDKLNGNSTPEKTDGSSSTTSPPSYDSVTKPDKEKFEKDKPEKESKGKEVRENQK", "conditions": "read-out: TTX IC50; cited from earlier work"}, "NaV1.8 [3]": {"target": "T1, NaV1.8", "conditions": "read-out: TTX IC50; cited from earlier work"}, "NaV1.1": {"target": "NaV1.1 (Homo sapiens, UniProt P35498)", "conditions": "read-out: TTX IC50; cited from earlier work"}, "NaV1.2": {"target": "NaV1.2 (Homo sapiens, UniProt Q99250)", "sequence (Q99250 whole entry, looked up)": "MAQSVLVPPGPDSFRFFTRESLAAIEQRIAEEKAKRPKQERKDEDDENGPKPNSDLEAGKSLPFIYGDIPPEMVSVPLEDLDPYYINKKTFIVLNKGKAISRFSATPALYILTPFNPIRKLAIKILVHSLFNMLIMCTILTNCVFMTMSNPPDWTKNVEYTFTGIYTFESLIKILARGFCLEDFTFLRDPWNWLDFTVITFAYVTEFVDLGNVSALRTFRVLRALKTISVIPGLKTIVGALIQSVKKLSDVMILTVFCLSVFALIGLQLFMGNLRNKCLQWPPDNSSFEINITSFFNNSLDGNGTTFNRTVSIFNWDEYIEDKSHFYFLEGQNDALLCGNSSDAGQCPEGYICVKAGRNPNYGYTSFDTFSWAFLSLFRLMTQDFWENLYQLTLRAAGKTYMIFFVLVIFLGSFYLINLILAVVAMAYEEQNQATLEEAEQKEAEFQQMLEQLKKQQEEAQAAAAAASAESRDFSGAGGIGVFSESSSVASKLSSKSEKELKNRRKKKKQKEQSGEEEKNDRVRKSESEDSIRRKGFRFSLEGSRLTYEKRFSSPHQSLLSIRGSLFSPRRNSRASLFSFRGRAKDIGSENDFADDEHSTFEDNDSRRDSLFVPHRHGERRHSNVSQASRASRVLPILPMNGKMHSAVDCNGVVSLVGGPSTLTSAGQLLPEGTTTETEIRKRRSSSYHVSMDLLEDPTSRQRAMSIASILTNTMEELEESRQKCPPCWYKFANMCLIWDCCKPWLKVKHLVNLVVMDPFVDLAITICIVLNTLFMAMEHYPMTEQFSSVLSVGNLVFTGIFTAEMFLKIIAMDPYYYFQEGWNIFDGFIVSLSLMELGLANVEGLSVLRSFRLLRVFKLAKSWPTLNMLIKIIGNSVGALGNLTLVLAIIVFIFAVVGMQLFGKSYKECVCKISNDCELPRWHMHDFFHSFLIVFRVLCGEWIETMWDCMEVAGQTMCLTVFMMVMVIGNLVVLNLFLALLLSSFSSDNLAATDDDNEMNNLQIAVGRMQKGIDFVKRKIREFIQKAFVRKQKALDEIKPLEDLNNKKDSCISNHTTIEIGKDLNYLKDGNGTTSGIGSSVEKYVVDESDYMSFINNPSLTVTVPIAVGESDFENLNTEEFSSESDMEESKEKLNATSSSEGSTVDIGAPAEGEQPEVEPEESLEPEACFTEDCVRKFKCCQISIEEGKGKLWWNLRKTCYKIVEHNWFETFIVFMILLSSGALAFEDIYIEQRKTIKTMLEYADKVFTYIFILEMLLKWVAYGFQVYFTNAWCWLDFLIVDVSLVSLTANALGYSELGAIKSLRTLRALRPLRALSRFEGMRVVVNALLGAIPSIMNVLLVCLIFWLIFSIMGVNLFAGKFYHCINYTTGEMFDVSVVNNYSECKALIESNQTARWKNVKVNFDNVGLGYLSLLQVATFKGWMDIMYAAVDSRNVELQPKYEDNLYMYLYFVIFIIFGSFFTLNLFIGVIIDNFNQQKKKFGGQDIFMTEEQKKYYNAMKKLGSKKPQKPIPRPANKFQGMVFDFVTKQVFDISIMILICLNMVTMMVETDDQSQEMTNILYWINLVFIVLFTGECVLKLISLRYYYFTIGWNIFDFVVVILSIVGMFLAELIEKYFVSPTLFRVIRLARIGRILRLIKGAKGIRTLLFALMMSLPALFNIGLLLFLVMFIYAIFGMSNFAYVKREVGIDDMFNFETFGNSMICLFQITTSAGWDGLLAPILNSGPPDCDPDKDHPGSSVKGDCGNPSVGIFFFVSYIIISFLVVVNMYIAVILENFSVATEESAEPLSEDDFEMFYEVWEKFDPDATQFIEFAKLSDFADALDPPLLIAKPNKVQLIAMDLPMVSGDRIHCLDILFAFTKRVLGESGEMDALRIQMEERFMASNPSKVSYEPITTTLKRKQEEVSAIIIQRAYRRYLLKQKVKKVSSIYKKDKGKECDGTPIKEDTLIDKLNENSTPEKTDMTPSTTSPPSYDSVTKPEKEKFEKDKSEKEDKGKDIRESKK", "conditions": "read-out: TTX IC50; cited from earlier work"}}, "note": "Read-outs that look alike come from different tables or passages of the source.", "data": [{"smiles": "Oc1ccccc1-c1nc(N2CCOCC2)c2sc(-c3ccc(F)cc3)cc2n1", "note": "[Compound 1, 2-(6-(4-Fluorophenyl)-4-morpholinothieno[3,2-d]pyrimidin-2-yl)phenol]", "values": [{"measurement": "IC50", "setting": "NaV1.8 [1]", "value": "> 20", "unit": "µM"}]}, {"smiles": "Cc1cc(C)c2c(n1)sc1c(N3CCOCC3)nc(-c3ccccc3O)nc12", "note": "[Compound 2]", "values": [{"measurement": "IC50", "setting": "NaV1.8 [1]", "value": "> 20", "unit": "µM"}]}, {"smiles": "Cc1csc2nc(-c3ccccc3O)nc(N3CCN(C(=O)OCC(C)C)CC3)c12", "note": "[Compound 4, Isobutyl 4-(2-(2-hydroxyphenyl)-5-methylthieno[2,3-d]pyrimidin-4-yl)piperazine-1-carboxylate]", "values": [{"measurement": "IC50", "setting": "NaV1.8 [1]", "value": "> 20", "unit": "µM"}]}, {"smiles": "CCCCS(=O)(=O)N1CCN(c2nc(-c3ccccc3O)nc3scc(C)c23)CC1", "note": "[Compound 5, 2-(4-(4-(butylsulfonyl)piperazin-1-yl)-5-methylthieno[2,3-d]pyrimidin-2-yl)phenol]", "values": [{"measurement": "IC50", "setting": "NaV1.8 [1]", "value": "> 20", "unit": "µM"}]}, {"smiles": "Cc1csc2nc(-c3ccccc3O)nc(N3CCC(NC(=O)OCC(C)C)CC3)c12", "note": "[Compound 6, Isobutyl 1-(2-(2-hydroxyphenyl)-5-methylthieno[2,3-d]pyrimidin-4-yl)piperidin-4-ylcarbamate]", "values": [{"measurement": "IC50", "setting": "NaV1.8 [1]", "value": "> 20", "unit": "µM"}]}, {"smiles": "CC(C)COC(=O)N1CCN(c2nc(-c3ccccc3O)nc3ccsc23)CC1", "note": "[Compound 7, Isobutyl 4-(2-(2-hydroxyphenyl)thieno[3,2-d]pyrimidin-4-yl)piperazine-1-carboxylate]", "values": [{"measurement": "IC50", "setting": "NaV1.8 [1]", "value": "< 5", "unit": "µM"}]}, {"smiles": "CC(C)COC(=O)NC1CCN(c2nc(-c3ccccc3O)nc3ccsc23)CC1", "note": "[Compound 8, Isobutyl 1-(2-(2-hydroxyphenyl)thieno[3,2-d]pyrimidin-4-yl)piperidin-4-ylcarbamate]", "values": [{"measurement": "IC50", "setting": "NaV1.8 [1]", "value": "< 5", "unit": "µM"}]}, {"smiles": "NCC1(CC(=O)O)CCCCC1", "note": "[Gabapentin]", "values": [{"measurement": "patients in whom it works", "setting": "[2]", "value": 60, "unit": "%"}]}, {"smiles": "NC1=N[C@H](O)[C@H]2[C@H]3O[C@]4(O)O[C@@H]([C@@H](O)[C@@]2(N1)[C@@H]4O)[C@]3(O)CO", "note": "[TTX, tetrodotoxin]", "values": [{"measurement": "IC50", "setting": "NaV1.6", "value": 6, "unit": "nM"}, {"measurement": "IC50", "setting": "NaV1.9", "value": 1000, "unit": "nM"}, {"measurement": "IC50", "setting": "NaV1.3", "value": 15, "unit": "nM"}, {"measurement": "IC50", "setting": "NaV1.8 [3]", "value": "> 50", "unit": "µM"}, {"measurement": "IC50", "setting": "NaV1.1", "value": 10, "unit": "nM"}, {"measurement": "IC50", "setting": "NaV1.2", "value": 10, "unit": "nM"}]}]}
